# Experimental data from patent US10226470B2, “DGAT1 inhibition for treatment of demyelinating inflammatory disease” (The Board of Trustees of the Leland Stanford Junior …, priority 2014, dated 2019).
# Legend:
# [1] = test system: C57BL/6 mice with MOG35-55-induced EAE; assay: EAE induced by active immunization with MOG35-55/CFA, clinical scoring and CNS histology; type: in vivo, mouse
# Protocol: In addition, administration of a selective DGAT1 inhibitor attenuated MOG35-55-induced EAE. C57BL/6 mice (8 weeks old) were induced to develop EAE by active immunization with MOG35-55/CFA. Twelve days after disease induction (indicated by the arrow), mice were administered vehicle (10% Captisol) or 10 mg/kg DGAT1 inhibitor A922500 once daily via s.c. injection and followed for clinical disease (n=10/group). Clinical data are presented as the mean score ±SEM. The scoring system is as follows: 0, normal or healthy; 1, limp tail; 2, hindlimb weakness; 3, hindlimb paralysis; 4, hindlimb and forelimb paralysis. *P<0.05 (days 14-30) by Mann-Whitney U test.
# EAE models. For EAE induction by active immunization, mice (8-10 weeks old) were immunized via subcutaneous (s.c.) injection with 100 μg MOG35-55 emulsified in CFA as described. Mice also received 250 ng pertussis toxin (List Biological Labs) via tail vein injection at the time of MOG35-55/CFA immunization and again 2 days later. Clinical disease was scored as follows: 0=normal or healthy; 1=flaccid tail; 2=hindlimb weakness; 3=hindlimb paralysis; 4=hindlimb and forelimb paralysis; 5=moribund or dead. Where indicated, A922500 was formulated in 10% Captisol vehicle for in vivo dosing via s.c. injection (100 μl volume). Individuals who conducted the clinical scoring were blinded to the treatment that the mice received.
# Histology. Brain and spinal cord tissues were fixed in 10% buffered formalin. Paraffin-embedded tissues were then stained with H&E, and CNS inflammatory foci (>10 mononuclear cells/focus) in leptomeninges and parenchyma were counted in each mouse sample in a blinded fashion.
# Statistics. The Mann-Whitney U test was applied to analyze nonparametric clinical EAE data, and the Student's t test was used to analyze all parametric data. The Fisher's exact test was used to compare disease incidence.
# C57BL/6 mice = assay: Tolerability observations in treated mice (behavior, leukocytes, organ wet weights and gross morphology); type: in vivo, mouse; conditions: mice induced to develop EAE, treated from day 12 p.i.
# Description: To address this possibility, we first determined whether pharmacological inhibition of DGAT1 could modulate clinical EAE. […] Suppression of clinical disease was evident as early as 2 days after dosing began and persisted until termination of the experiment at day 30 p.i. (FIG. 3a). Overall, the compound delayed onset of clinical signs by an average of 6 days and reduced disease incidence at day 30 p.i. by 30%. […] Thus, administration of a selective DGAT1 inhibitor attenuates EAE.
# WT CD4+CD25− cells = assay: In vitro T regulatory cell induction, WT T cells; type: cell-based, mouse
# Protocol: (§1) FIG. 7. DGAT1 limits retinoic acid-dependent Treg induction. WT or DGAT1 KO CD4+CD25− cells were incubated with T cell-depleted DGAT1 KO MLN cells in delipidated serum in the absence or presence of: soluble anti-CD3; TGFβ; retinol (ROL; 10 nM); A922500 (100 nM); or AM580 (10 nM) where indicated. After 3 days, TCRβ+ lymphocytes in the live gate were analyzed for expression of CD4 and Foxp3 by flow cytometry. (a) Representative FACS plots show the frequency of WT (top panels) or DGAT1 KO (bottom panels) CD4+Foxp3+ Tregs within the gate. (b) FACS data are summarized in bar graph form. Bars depict the mean+SEM of triplicate wells. Two independent experiments were performed.
# (§2) This acyl-CoA:retinol acyltransferase (ARAT) function enables DGAT1 to convert retinol (vitamin A) to its storage retinyl ester form. RA, the active metabolite of vitamin A, supports Treg induction; however, T lymphocytes cannot synthesize RA autonomously. We hypothesized that T cell-expressed DGAT1 functions as an ARAT, diverting retinol to its storage ester form. This would lead to a reduction in levels of RA locally. Conversely, DGAT1 deficiency would prevent this sequestration of retinol, leading to elevated RA and Treg induction. […]
# [2] = daily 10 mg/kg; models of obesity; cited from earlier work
# DGAT1 KO CD4+CD25− cells = assay: In vitro T regulatory cell induction, DGAT1 KO T cells; type: cell-based, mouse; conditions: retinol 10 nM; anti-CD3/TGFβ, DGAT1 KO MLN cells, delipidated serum, 3 days
# Protocol: as §1, §2
# [3] = 30 days after EAE induction, mean (SEM), 10 mg/kg s.c. once daily from day 12
compound,measurement,setting,value
O=C(Nc1ccccc1)Nc1ccc(-c2ccc(C(=O)[C@@H]3CCC[C@H]3C(=O)O)cc2)cc1 [A922500],Time after start of dosing at which suppression of clinical disease was evident,"[1]; 10 mg/kg daily from day 12 p.i., persisted until day 30 p.i.",2 days
same,Mean maximal score (SEM),"[1]; 10 mg/kg s.c. once daily from day 12 p.i., clinical score 0-5",1.4 (0.4)^ns
same,Mean day of onset (SEM),"[1]; 10 mg/kg s.c. once daily from day 12 p.i., only animals that developed EAE",20.1 (1.9)* day
same,"No. of CNS inflammatory foci, Meninges",[1]; [3],19.8 (8.8)
same,"No. of CNS inflammatory foci, Parenchyma",[1]; [3],29.9 (12.4)
same,Delay of onset of clinical signs,"[1]; average, versus vehicle, 10 mg/kg daily from day 12 p.i.",6 days
same,Effect on clinical EAE,"[1]; daily 10 mg/kg, P<0.05 days 14-30 p.i. by Mann-Whitney U test",attenuated EAE
same,Reduction of disease incidence at day 30 p.i.,"[1]; versus vehicle, 10 mg/kg daily from day 12 p.i.",30%
same,Leukocyte numbers or composition within peripheral lymphoid tissues,C57BL/6 mice,did not induce overt behavioral changes or significantly alter leukocyte numbers or composition within peripheral lymphoid tissues
same,Organ toxicity (wet weights and gross morphology of several organs incl. spleen and thymus),C57BL/6 mice,did not cause detectable organ toxicity
same,Overt behavioral changes,C57BL/6 mice,did not induce overt behavioral changes
same,Difference between DGAT1−/− and WT Treg induction responses to retinol,"WT CD4+CD25− cells; A922500 100 nM with retinol 10 nM, anti-CD3/TGFβ, 3 days",abrogated the difference between DGAT1−/− and WT cell responses
same,Serum TG levels,[2],significantly reduces serum TG levels
CC1(C)CCC(C)(C)c2cc(C(=O)Nc3ccc(C(=O)O)cc3)ccc21 [AM580],Treg induction by RAR agonist,"WT CD4+CD25− cells; AM580 10 nM, WT and DGAT1 KO cells, DGAT1 deficiency had no significant effect",enhanced Treg induction
"CC1=C(/C=C/C(C)=C/C=C/C(C)=C/CO)C(C)(C)CCC1 [retinol, All-trans-retinol]",Foxp3+ Treg induction,DGAT1 KO CD4+CD25− cells,significantly enhanced
